Assay results published in ChEMBL document CHEMBL1201862, “PubChem BioAssay data set” (2004).
Active and inactive are the calls of the source.

Assays:
[1] = target: T1, Short transient receptor potential channel 4 (Mus musculus, UniProt Q9QUQ5); experiment: calcium entry via TRPC4 opening agents – cell-based, HEK293 TRPC4/mu-opioid, Fluo-4 calcium, dose response (AID 434937); type: functional
T1 sequence (Q9QUQ5 whole entry): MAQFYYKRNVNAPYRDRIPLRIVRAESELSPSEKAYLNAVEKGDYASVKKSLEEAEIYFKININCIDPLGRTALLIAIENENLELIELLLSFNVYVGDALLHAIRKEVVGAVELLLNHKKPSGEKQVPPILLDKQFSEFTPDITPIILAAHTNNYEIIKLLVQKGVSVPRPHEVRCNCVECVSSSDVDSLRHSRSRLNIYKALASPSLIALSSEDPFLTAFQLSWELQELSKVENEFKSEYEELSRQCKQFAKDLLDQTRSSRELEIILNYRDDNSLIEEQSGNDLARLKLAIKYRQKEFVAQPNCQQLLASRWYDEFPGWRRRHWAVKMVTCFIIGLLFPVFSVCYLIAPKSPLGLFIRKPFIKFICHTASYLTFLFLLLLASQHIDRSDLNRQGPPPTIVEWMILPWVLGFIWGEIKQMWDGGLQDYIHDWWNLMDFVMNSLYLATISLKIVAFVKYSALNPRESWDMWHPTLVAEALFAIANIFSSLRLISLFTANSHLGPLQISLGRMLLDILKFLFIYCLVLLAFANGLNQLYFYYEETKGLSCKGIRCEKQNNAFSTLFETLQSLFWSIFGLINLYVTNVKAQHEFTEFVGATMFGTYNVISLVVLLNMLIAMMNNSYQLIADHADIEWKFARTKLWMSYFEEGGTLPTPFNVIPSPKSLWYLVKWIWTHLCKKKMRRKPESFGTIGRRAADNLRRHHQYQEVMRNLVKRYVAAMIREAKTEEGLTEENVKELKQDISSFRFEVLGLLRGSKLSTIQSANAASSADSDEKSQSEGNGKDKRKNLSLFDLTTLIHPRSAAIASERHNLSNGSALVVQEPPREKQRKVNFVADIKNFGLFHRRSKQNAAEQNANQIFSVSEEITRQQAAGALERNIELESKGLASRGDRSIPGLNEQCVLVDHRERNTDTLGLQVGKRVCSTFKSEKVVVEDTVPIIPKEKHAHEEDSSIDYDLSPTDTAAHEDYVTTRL

[2] = target: Eukaryotic translation initiation factor 4E (Mus musculus, UniProt P63073); experiment: blockers of eIF4G binding by eIF4E – biochemical, TR-FRET, dose response (AID 855); type: functional;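 further: potency for disrupting eIF4E binding to eIF4GI seen as loss of FRET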
Chain of Eukaryotic translation initiation factor 4E (P63073 whole entry): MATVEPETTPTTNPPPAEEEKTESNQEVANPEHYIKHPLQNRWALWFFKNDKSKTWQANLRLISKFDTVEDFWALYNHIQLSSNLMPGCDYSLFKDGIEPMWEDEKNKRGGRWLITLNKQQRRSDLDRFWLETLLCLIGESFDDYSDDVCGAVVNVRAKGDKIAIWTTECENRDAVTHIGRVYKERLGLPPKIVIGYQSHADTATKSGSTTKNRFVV

Beta-galactosidase = Beta-galactosidase (Escherichia coli, UniProt Q8VNN2); experiment: PubChem AID 485352; type: functional
Chain of Beta-galactosidase (Q8VNN2 whole entry): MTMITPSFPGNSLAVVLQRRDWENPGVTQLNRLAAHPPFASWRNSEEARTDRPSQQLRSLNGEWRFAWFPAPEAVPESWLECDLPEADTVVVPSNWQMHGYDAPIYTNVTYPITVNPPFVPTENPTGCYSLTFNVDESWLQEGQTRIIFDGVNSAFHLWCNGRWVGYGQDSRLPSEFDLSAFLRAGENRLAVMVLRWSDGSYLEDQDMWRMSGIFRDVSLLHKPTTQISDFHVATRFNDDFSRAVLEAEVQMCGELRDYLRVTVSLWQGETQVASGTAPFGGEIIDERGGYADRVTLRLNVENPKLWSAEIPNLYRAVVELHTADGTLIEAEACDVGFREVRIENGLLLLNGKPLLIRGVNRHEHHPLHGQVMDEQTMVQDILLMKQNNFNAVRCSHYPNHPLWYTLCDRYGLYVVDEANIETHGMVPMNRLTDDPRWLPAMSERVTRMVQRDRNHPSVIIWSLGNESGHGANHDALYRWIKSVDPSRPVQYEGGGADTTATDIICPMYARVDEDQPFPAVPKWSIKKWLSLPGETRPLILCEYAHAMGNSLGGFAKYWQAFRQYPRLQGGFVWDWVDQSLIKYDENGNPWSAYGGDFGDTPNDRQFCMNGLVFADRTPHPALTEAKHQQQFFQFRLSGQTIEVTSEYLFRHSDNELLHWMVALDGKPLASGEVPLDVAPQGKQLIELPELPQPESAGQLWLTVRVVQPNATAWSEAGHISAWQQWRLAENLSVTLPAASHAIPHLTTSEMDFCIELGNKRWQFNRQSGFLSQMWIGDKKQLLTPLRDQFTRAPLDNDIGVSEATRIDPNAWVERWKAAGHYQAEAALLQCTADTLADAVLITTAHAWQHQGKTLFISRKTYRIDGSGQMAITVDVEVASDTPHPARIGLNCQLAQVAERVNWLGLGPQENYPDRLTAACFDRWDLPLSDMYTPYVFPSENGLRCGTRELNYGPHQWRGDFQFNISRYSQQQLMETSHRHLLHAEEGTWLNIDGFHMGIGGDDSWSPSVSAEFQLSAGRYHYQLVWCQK

[3] = target: T2, Type-1 angiotensin II receptor (Homo sapiens, UniProt P30556); experiment: antagonism of angiotensin II type 1 receptor – cell-based, uHTS hits, selectivity assay for APJ receptor antagonist project, dose response (AID 463214); type: functional;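 further: antagonist potency against angiotensin II stimulated AT1 response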
T2 sequence (P30556 whole entry): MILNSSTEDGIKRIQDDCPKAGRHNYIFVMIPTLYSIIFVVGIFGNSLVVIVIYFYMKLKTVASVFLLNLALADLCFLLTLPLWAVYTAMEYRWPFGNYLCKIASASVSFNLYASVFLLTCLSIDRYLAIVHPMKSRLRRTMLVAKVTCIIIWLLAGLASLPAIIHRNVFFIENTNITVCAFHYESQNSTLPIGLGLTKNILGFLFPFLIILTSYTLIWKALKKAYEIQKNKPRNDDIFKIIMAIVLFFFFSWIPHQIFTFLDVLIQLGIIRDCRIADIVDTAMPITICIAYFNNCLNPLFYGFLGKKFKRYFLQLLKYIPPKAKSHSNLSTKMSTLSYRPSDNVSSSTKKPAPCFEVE

[4] = target: Glucose-6-phosphate 1-dehydrogenase (Homo sapiens, UniProt P11413); experiment: inhibition of Homo sapiens G6PD, dose series – biochemical, fluorescence, selectivity assay for P. falciparum G6PD inhibitor project, dose response (AID 504792); type: functional
Chain of Glucose-6-phosphate 1-dehydrogenase (P11413 whole entry): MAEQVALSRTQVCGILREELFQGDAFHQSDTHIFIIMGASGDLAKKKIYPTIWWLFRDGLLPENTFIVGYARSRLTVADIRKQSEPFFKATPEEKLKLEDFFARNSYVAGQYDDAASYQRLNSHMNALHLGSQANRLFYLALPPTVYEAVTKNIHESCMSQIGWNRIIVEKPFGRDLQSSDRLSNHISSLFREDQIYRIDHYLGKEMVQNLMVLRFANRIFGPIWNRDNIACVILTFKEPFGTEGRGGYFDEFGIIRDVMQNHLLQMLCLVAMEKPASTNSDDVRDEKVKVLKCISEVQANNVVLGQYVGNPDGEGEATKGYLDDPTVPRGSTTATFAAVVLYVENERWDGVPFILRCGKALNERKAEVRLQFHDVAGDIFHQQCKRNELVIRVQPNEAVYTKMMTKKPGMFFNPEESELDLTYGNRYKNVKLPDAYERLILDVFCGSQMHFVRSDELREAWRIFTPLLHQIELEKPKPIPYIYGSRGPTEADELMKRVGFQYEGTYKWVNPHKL

Prothrombin [5] = target: Prothrombin (Homo sapiens, UniProt P00734); experiment: Thrombin 1536 HTS Dose Response Confirmation. [Related pubchem assays: 1046 (Thrombin 1536 HTS; hits were confirmed in this assay)]; type: functional
Streptokinase A = target: T3, Streptokinase A (Streptococcus pyogenes serotype M1, UniProt P10520); experiment: viability-normalized secreted streptokinase activity reduction – plasminogen activation absorbance, OD405, dose response (AID 1914); type: functional, Streptococcus pyogenes M1 GAS;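 further: secreted streptokinase activity via plasminogen activation per viability signal from cell pellet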
T3 sequence (P10520 whole entry): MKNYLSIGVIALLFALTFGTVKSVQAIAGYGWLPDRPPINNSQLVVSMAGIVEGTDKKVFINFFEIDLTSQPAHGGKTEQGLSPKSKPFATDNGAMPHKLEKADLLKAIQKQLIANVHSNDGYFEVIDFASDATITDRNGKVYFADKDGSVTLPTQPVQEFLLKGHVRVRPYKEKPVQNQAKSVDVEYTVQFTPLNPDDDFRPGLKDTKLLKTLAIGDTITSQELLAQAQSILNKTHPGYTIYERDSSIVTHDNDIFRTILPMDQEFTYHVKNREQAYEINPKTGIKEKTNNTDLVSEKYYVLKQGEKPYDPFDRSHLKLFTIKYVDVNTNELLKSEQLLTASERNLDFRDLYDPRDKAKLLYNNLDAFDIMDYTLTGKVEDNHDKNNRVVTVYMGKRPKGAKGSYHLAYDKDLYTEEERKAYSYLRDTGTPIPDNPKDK

Streptococcus = experiment: GAS UMAA2166 growth inhibition – luminescence, BacTiterGlo, counter-screen for streptokinase expression inhibitor project, dose response (AID 1915); type: functional, organism-based;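 further: potency for reduction of bacterial viability or growth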
[6] = test system: Streptococcus sp. 'group A'; experiment: Streptococcus pyogenes SK(-)GAS viability under kanamycin – luminescence, BacTiterGlo, confirmation, counter-screen for streptokinase expression inhibitor project, dose response (AID 1900); type: functional, organism-based
Melanocortin receptor 4 = Melanocortin receptor 4 (Homo sapiens, UniProt P32245); type: functional, cell-based;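 further: Cell-based assay with luminescence read-out, confirmatory dose-response testing for agonist activity of biased ligands at MC4R; human U2OS cells with tagged receptor and beta-arrestin; potency of agonists that increase receptor coupling to beta-arrestin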
Chain of Melanocortin receptor 4 (P32245 whole entry): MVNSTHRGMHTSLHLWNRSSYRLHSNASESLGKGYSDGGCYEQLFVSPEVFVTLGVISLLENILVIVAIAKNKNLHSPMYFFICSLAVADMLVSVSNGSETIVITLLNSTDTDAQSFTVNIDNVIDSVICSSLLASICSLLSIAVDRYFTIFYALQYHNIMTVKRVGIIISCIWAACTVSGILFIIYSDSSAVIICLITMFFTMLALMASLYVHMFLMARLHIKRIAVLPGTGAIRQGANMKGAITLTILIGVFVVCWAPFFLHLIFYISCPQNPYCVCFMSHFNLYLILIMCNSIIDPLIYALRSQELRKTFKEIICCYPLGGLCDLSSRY

[7] = Luminescence Cell-Based Dose Response HTS to Identify Activators of Luciferase Translation or Activity in H4 […] Cells. [Related pubchem assays: 1829 (Project Summary), 1814 (Primary HTS)]; type: functional
H4 = experiment: Luminescence Cell-Based Dose Response HTS to Identify Activators of 5'UTR Stem-Loop Driven Prion Protein mRNA Translation in H4 Neuroglioblastoma Cells. [Related pubchem assays: 1829 (Project Summary), 1814 (Primary HTS)]; type: functional; details: Homo sapiens
[8] = target: Dual specificity tyrosine-phosphorylation-regulated kinase 1A (Rattus norvegicus, UniProt Q63470); type: biochemical, Homo sapiens
[9] = reduced cellular PGC1a acetyl-lysine signal – cell-based, cherry-picked samples, dose response (AID 720514); type: functional;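 further: potency may reflect raised or lowered acetylation signal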
[10] = target: 72 kDa type IV collagenase (Homo sapiens, UniProt P08253); experiment: Dose Response validation of uHTS RPN11 inhibitor hits using a MMP-2 Fluorescence assay.; type: functional
Chain of 72 kDa type IV collagenase (P08253 whole entry, the tested form may be a part): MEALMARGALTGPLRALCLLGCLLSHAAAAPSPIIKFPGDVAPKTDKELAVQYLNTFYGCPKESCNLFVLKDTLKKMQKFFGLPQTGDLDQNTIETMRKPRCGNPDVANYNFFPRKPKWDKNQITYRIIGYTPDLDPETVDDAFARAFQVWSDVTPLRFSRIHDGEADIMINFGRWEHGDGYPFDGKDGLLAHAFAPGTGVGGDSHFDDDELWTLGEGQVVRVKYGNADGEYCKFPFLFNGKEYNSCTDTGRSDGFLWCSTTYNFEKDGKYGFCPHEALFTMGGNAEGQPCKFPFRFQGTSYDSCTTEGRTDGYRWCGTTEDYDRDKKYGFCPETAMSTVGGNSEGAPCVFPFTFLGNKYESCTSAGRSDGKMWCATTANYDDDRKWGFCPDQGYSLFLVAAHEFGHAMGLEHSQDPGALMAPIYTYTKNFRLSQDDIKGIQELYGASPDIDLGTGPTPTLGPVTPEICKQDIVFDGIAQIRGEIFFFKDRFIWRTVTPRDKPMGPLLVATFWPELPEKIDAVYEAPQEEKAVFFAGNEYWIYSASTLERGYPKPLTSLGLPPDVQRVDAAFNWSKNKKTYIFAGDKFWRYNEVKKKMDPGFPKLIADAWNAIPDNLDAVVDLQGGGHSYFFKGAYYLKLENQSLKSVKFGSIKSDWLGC

[11] = target: T4, Carboxy-terminal domain RNA polymerase II polypeptide A small phosphatase 1 (Homo sapiens, UniProt Q9GZU7); experiment: CTDSP1 inhibitors, concentration-response, biochemical, absorbance readout, ultra-high-throughput screen actives (AID 540297); type: functional
T4 sequence (Q9GZU7 whole entry): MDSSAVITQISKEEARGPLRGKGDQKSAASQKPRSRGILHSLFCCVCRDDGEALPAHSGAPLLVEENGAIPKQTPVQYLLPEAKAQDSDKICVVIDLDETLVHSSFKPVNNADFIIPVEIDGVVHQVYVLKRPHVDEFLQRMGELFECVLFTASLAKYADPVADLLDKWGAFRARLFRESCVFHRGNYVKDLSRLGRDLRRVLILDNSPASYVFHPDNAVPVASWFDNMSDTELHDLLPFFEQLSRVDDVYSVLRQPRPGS

Prothrombin [12] = target: Prothrombin (Bos taurus, UniProt P00735); experiment: thrombin protease inhibitors – biochemical, fluorescence polarization, uHTS hits, dose response (AID 602369); type: functional
[13] = target: 26S proteasome non-ATPase regulatory subunit 14 (Homo sapiens, UniProt O00487); experiment: inhibition of proteasome subunit RPN11 – biochemical, fluorescence polarization, uHTS hits, confirmation (AID 602368); type: functional
Chain of 26S proteasome non-ATPase regulatory subunit 14 (O00487 whole entry): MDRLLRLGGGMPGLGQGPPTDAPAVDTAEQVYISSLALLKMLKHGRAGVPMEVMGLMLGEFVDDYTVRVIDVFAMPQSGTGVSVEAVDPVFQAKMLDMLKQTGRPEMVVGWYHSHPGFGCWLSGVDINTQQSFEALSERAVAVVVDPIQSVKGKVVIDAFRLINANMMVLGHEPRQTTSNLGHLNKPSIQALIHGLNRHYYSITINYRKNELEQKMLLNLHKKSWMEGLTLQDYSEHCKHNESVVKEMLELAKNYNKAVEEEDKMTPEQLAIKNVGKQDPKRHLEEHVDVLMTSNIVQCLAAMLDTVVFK

H9c2 = experiment: cells; type: functional, cell-based; details: Rattus norvegicus, H9c2, Myocardium
[14] = target: FAD-linked sulfhydryl oxidase ALR (Homo sapiens, UniProt P55789); experiment: ALR-catalysed DTT oxidation blockers – biochemical, H2O2 detection, luminescence, cherry-pick, dose response (AID 493248)
Chain of FAD-linked sulfhydryl oxidase ALR (P55789 whole entry): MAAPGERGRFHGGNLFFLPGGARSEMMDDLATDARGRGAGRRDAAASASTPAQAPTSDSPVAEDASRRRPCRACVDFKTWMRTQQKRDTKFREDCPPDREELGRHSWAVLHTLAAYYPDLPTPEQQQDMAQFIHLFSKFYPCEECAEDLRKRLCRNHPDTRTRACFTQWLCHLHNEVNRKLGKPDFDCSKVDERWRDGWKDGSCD

## COc1ccc(C2NCCc3[nH]cnc32)cc1 (stereo not given)
[1]
  EC50: 3.35 µM (active)

## CC(=O)Nc1ccc(S(=O)(=O)NCCSc2ccccn2)cc1
[2]
  IC50: > 64 µM (inactive)

## CCOC(=O)c1c(C2COc3ccccc3O2)csc1NC(=O)c1ccco1 (stereo not given)
Beta-galactosidase
  EC50: > 40 µM (inactive)
[3]
  IC50: > 40 µM (not active)
[4]
  IC50: > 80 µM (inactive)

## Cc1ccc(Cl)cc1N1CCN(CCN)CC1
[1]
  EC50: 0.211 µM (active)

## O=C(Cn1cn[n+](CC(=O)c2ccc(Cl)cc2Cl)c1)c1ccc([N+](=O)[O-])cc1
Prothrombin [5]
  IC50: 1.7 µM (active)
Streptokinase A
  EC50: 21.4 µM (active)
Streptococcus
  EC50: > 150 µM (not active)
[6]
  EC50: 11.3 µM (active)

## Cc1cc(C)nc(Nc2ccccc2Br)n1
Prothrombin [5]
  IC50: > 50 µM (not active)

## COc1ccc(CSCCN)cc1Cl
[1]
  EC50: 5.96 µM (active)

## COc1ccccc1CC(=O)N1CCN(CCc2ccccc2)CC1
[1]
  EC50: 4.22 µM (active)

## CCc1ccc(C2CC(c3ccc(F)cc3)Nc3nc(N)nn32)cc1 (stereo not given)
Melanocortin receptor 4
  EC50: 48.1 µM (inactive)

## CCc1ccc(C(=O)NNc2ccc(C)c(Cl)c2)cc1
Beta-galactosidase
  EC50: > 40 µM (inactive)
[3]
  IC50: 2.55 µM (active)

## CCCCN(CC)CCCNC(=O)Cn1nc(Cc2cccnc2)c2ccccc2c1=O
[1]
  EC50: 1.88 µM (active)

## O=C(Nc1nc2ccc([N+](=O)[O-])cc2s1)C1CCCO1 (stereo not given)
[7]
  EC50: 0.224 µM (active)
H4
  EC50: > 120 µM (not active)
[8]
  AC50: 0.577 µM (active)

## Cc1c(NS(=O)(=O)c2ccc(Cl)c(C(=O)OCC(=O)NCc3ccco3)c2)c(=O)n(-c2ccccc2)n1C
Prothrombin [5]
  IC50: > 50 µM (not active)

## Cc1noc(C)c1CSc1nnc(-c2cccnc2)n1C1CCCCC1C (stereo not given)
[9]
  AC50: 28.4 µM (active)

## COc1c(C)cc(C(=O)C2CCCN(S(=O)(=O)c3c(C)noc3C)C2)cc1C (stereo not given)
Prothrombin [5]
  IC50: > 50 µM (not active)

## Cc1c(-n2cccc2C=O)cccc1[N+](=O)[O-]
[2]
  IC50: 50 µM (inactive)

## COc1ccc2c(Cl)c(C(=O)NCc3ccco3)sc2c1
[8]
  AC50: 0.273 µM (active)

## O=C(Nc1ccc(-c2nc3ccccc3s2)c(O)c1)C1=COCCO1
[10]
  IC50: > 100 µM (inactive)
[11]
  IC50: 3.39 µM (active)
Prothrombin [12]
  IC50: 91.4 µM (active)
[13]
  IC50: 22.5 µM (active)

## O=C(Cc1ccc(Cl)cc1)OCc1nnc(-c2ccccc2)o1
[2]
  IC50: 50 µM (inactive)

## O=C(Cc1ccccc1)OCn1nnc2ccccc2c1=O
[2]
  IC50: > 64 µM (inactive)

## CC(=O)Nc1cc(-c2ccccc2)cn2c(-c3cccc(C(C)=O)c3)cnc12
H9c2
  IC50: > 79 µM (inactive)
Melanocortin receptor 4
  EC50: > 89.2 µM (inactive)

## CC(=O)Nc1cc(-c2ccc(S(C)(=O)=O)cc2)cn2c(-c3ccc(F)c(Cl)c3)cnc12
Melanocortin receptor 4
  EC50: > 89.2 µM (inactive)

## COc1cccc(NC(=S)N/N=C2\CC3CCC2(C)C3(C)C)c1 (stereo not given)
Beta-galactosidase
  EC50: > 40 µM (inactive)
[3]
  IC50: 27.4 µM (not active)

## CCOC(=O)c1ccc(/N=C/c2nc(-c3ccccc3)oc2OC(C)=O)cc1
Prothrombin [5]
  IC50: 0.526 µM (active)

## COc1cc(CN2C[C@@H]3N[C@H](C2)[C@@H]3c2ccc(-c3ccccc3C)cc2)cc(OC)c1
[9]
  AC50: 6.84 µM (active)

## CN(C)/C=N/c1nc(-c2ccc3c(c2)OCO3)cs1
[14]
  AC50: 10.9 µM (active)
[8]
  AC50: 3.64 µM (active)
